How the values were obtained:
MCF7 [1] = assay: In vitro cytotoxicity against MCF-7 human mammary carcinoma cells; type: functional, cell-based
NCI/ADR-RES = assay: Growth inhibition of the NCI/ADR-RES Breast cancer cell line for 2-day in vitro assay.; type: functional; settings: Homo sapiens, 48 h
OVCAR-8 = assay: Growth inhibition of the OVCAR-8 Ovarian cancer cell line for 2-day in vitro assay.; type: functional; settings: Homo sapiens, OVCAR-8, 48 h
SF-539 = assay: Growth inhibition of the SF-539 CNS cancer cell line for 2-day in vitro assay.; type: functional; settings: Homo sapiens, SF-539, 48 h
UACC-257 = assay: Growth inhibition of the UACC-257 Melanoma cancer cell line for 2-day in vitro assay.; type: functional; settings: Homo sapiens, UACC-257, 48 h
UACC-62 = assay: Growth inhibition of the UACC-62 Melanoma cancer cell line for 2-day in vitro assay.; type: functional; settings: Homo sapiens, UACC-62, 48 h
PC-3 = assay: Growth inhibition of the PC-3 Prostate cancer cell line for 2-day in vitro assay.; type: functional; settings: Homo sapiens, PC-3, 48 h
ACHN = assay: Growth inhibition of the ACHN Renal cancer cell line for 2-day in vitro assay.; type: functional; settings: Homo sapiens, 48 h
HT-29 = assay: Growth inhibition of the HT-29 colon cancer cell line for 2-day in vitro assay.; type: functional; settings: Homo sapiens, HT-29, 48 h
HL-60 = assay: Growth inhibition of the HL-60(TB) leukemia cell line for 2-day in vitro assay.; type: functional; settings: Homo sapiens, HL-60, 48 h
A549 = assay: Growth inhibition of the A549/ATCC non-small cell lung cancer cell line for 2-day in vitro assay.; type: functional; settings: Homo sapiens, A549, 48 h
DU-145 = assay: Growth inhibition of the DU-145 Prostate cancer cell line for 2-day in vitro assay.; type: functional; settings: Homo sapiens, DU-145, 48 h
EKVX = assay: Growth inhibition of the EKVX non-small cell lung cancer cell line for 2-day in vitro assay.; type: functional; settings: Homo sapiens, 48 h
HCT-15 = assay: Growth inhibition of the HCT-15 colon cancer cell line for 2-day in vitro assay.; type: functional; settings: Homo sapiens, HCT-15, 48 h
KM12 = assay: Growth inhibition of the KM12 colon cancer cell line for 2-day in vitro assay.; type: functional; settings: Homo sapiens, KM12, 48 h
SK-OV-3 = assay: Growth inhibition of the SK-OV-3 Ovarian cancer cell line for 2-day in vitro assay.; type: functional; settings: Homo sapiens, SK-OV-3, 48 h
HCT-116 = assay: Growth inhibition of the HCT116 colon cancer cell line for 2-day in vitro assay.; type: functional; settings: Homo sapiens, HCT-116, 48 h
HCC 2998 = assay: Growth inhibition of the HCC2998 colon cancer cell line for 2-day in vitro assay.; type: functional; settings: Homo sapiens, HCC 2998, 48 h
SNB-75 = assay: Growth inhibition of the SNB-75 CNS cancer cell line for 2-day in vitro assay.; type: functional; settings: Homo sapiens, SNB-75, 48 h
Malme-3M = assay: Growth inhibition of the MALME-3M Melanoma cancer cell line for 2-day in vitro assay.; type: functional; settings: Homo sapiens, 48 h
SW-620 = assay: Growth inhibition of the SW-620 colon cancer cell line for 2-day in vitro assay.; type: functional; settings: Homo sapiens, SW-620, 48 h
M14 = assay: Growth inhibition of the M14 Melanoma cancer cell line for 2-day in vitro assay.; type: functional; settings: Homo sapiens, M14, 48 h
NCI-H322M = assay: Growth inhibition of the NCI-H322M non-small cell lung cancer cell line for 2-day in vitro assay.; type: functional; settings: Homo sapiens, 48 h
NCI-H460 = assay: Growth inhibition of the NCI-H460 non-small cell lung cancer cell line for 2-day in vitro assay.; type: functional; settings: Homo sapiens, NCI-H460, 48 h
Hs-578T = assay: Growth inhibition of the Hs 578.T Breast cancer cell line for 2-day in vitro assay.; type: functional; settings: Homo sapiens, 48 h
A498 = assay: Growth inhibition of the A498 Renal cancer cell line for 2-day in vitro assay.; type: functional; settings: Homo sapiens, A498, 48 h
SK-MEL-5 = assay: Growth inhibition of the SK-MEL-5 Melanoma cancer cell line for 2-day in vitro assay.; type: functional; settings: Homo sapiens, SK-MEL-5, 48 h
MDA-N = assay: Growth inhibition of the MDA-N Breast cancer cell line for 2-day in vitro assay.; type: functional; settings: Homo sapiens, 48 h
UO-31 = assay: Growth inhibition of the UO-31 Renal cancer cell line for 2-day in vitro assay.; type: functional; settings: Homo sapiens, UO-31, 48 h
SNB-19 = assay: Growth inhibition of the SNB19 CNS cancer cell line for 2-day in vitro assay.; type: functional; settings: Homo sapiens, SNB-19, 48 h
786-0 = assay: Growth inhibition of the 786-O Renal cancer cell line for 2-day in vitro assay.; type: functional; settings: Homo sapiens, 786-0, 48 h
SF-268 = assay: Growth inhibition of the SF-268 CNS cancer cell line for 2-day in vitro assay.; type: functional; settings: Homo sapiens, SF-268, 48 h
K562 = assay: Growth inhibition of the K-562 leukemia cell line for 2-day in vitro assay.; type: functional; settings: Homo sapiens, K562, 48 h
T47D = assay: Growth inhibition of the T-47D Breast cancer cell line for 2-day in vitro assay.; type: functional; settings: Homo sapiens, 48 h
MDA-MB-435 = assay: Growth inhibition of the […] Breast cancer cell line for 2-day in vitro assay.; type: functional; settings: Homo sapiens, MDA-MB-435, 48 h
SF-295 = assay: Growth inhibition of the SF-295 CNS cancer cell line for 2-day in vitro assay.; type: functional; settings: Homo sapiens, SF-295, 48 h
BT-549 = assay: Growth inhibition of the BT-549 Breast cancer cell line for 2-day in vitro assay.; type: functional; settings: Homo sapiens, BT-549, 48 h
COLO 205 = assay: Growth inhibition of the COLO-205 colon cancer cell line for 2-day in vitro assay.; type: functional; settings: Homo sapiens, COLO 205, 48 h
HOP-62 = assay: Growth inhibition of the HOP-62 non-small cell lung cancer cell line for 2-day in vitro assay.; type: functional; settings: Homo sapiens, HOP-62, 48 h
U-251 = assay: Growth inhibition of the U251 CNS cancer cell line for 2-day in vitro assay.; type: functional; settings: Homo sapiens, U-251, 48 h
MCF7 [2] = assay: Growth inhibition of the MCF-7 Breast cancer cell line for 2-day in vitro assay.; type: functional; settings: Homo sapiens, MCF7, 48 h
SN12C = assay: Growth inhibition of the SN12C Renal cancer cell line for 2-day in vitro assay.; type: functional; settings: Homo sapiens, 48 h
NCI-H23 = assay: Growth inhibition of the NCI-H23 non-small cell lung cancer cell line for 2-day in vitro assay.; type: functional; settings: Homo sapiens, NCI-H23, 48 h
CCRF-CEM = assay: Growth inhibition of the CCRF-CEM leukemia cell line for 2-day in vitro assay.; type: functional; settings: Homo sapiens, 48 h
SR = assay: Growth inhibition of the SR leukemia cell line for 2-day in vitro assay.; type: functional; settings: Homo sapiens, 48 h
NCI-H522 = assay: Growth inhibition of the NCI-H522 non-small cell lung cancer cell line for 2-day in vitro assay.; type: functional; settings: Homo sapiens, NCI-H522, 48 h
SK-MEL-2 = assay: Growth inhibition of the SK-MEL-2 Melanoma cancer cell line for 2-day in vitro assay.; type: functional; settings: Homo sapiens, SK-MEL-2, 48 h
MOLT-4 = assay: Growth inhibition of the MOLT-4 leukemia cell line for 2-day in vitro assay.; type: functional; settings: Homo sapiens, MOLT-4, 48 h
LOX IMVI = assay: Growth inhibition of the LOX IMVI Melanoma cancer cell line for 2-day in vitro assay.; type: functional; settings: Homo sapiens, 48 h
TK-10 = assay: Growth inhibition of the TK-10 Renal cancer cell line for 2-day in vitro assay.; type: functional; settings: Homo sapiens, TK-10, 48 h
RXF 393 = assay: Growth inhibition of the RXF-393 Renal cancer cell line for 2-day in vitro assay.; type: functional; settings: Homo sapiens, RXF 393, 48 h
MDA-MB-231 = assay: Growth inhibition of the […] Breast cancer cell line for 2-day in vitro assay.; type: functional; settings: Homo sapiens, MDA-MB-231, 48 h
SK-MEL-28 = assay: Growth inhibition of the SK-MEL-28 Melanoma cancer cell line for 2-day in vitro assay.; type: functional; settings: Homo sapiens, SK-MEL-28, 48 h
OVCAR-4 = assay: Growth inhibition of the OVCAR-4 Ovarian cancer cell line for 2-day in vitro assay.; type: functional; settings: Homo sapiens, OVCAR-4, 48 h
NCI-H226 = assay: Growth inhibition of the NCI-H226 non-small cell lung cancer cell line for 2-day in vitro assay.; type: functional; settings: Homo sapiens, NCI-H226, 48 h

CC(=O)Nc1ccc(-c2nc3ccc(O)cc3s2)cc1Cl
IC50 (MCF7 [1]): 71.2 µM

Nc1ccc(-c2nc3cc(O)ccc3s2)cc1
IC50 (MCF7 [1]): > 100 µM

Cc1cc(-c2nc3ccccc3s2)ccc1N
GI50 (NCI/ADR-RES): 93.3 µM | GI50 (OVCAR-8): > 100 µM | GI50 (SF-539): > 100 µM | GI50 (UACC-257): 74.1 µM | GI50 (UACC-62): 70.8 µM | GI50 (PC-3): 31.6 µM | GI50 (ACHN): 51.3 µM | GI50 (HT-29): 29.5 µM | GI50 (HL-60): 8.71 µM | GI50 (A549): 28.8 µM | GI50 (DU-145): 61.7 µM | GI50 (EKVX): 34.7 µM | GI50 (HCT-15): 47.9 µM | GI50 (KM12): > 100 µM | GI50 (SK-OV-3): > 100 µM | GI50 (HCT-116): 43.7 µM | GI50 (HCC 2998): 0.251 µM | GI50 (SNB-75): 33.1 µM | GI50 (Malme-3M): > 100 µM | GI50 (SW-620): > 100 µM | GI50 (M14): 57.5 µM | GI50 (NCI-H322M): 43.7 µM | GI50 (NCI-H460): 53.7 µM | GI50 (Hs-578T): > 100 µM | GI50 (A498): 42.7 µM | GI50 (SK-MEL-5): 21.9 µM | GI50 (MDA-N): 97.7 µM | GI50 (UO-31): 6.46 µM | GI50 (SNB-19): > 100 µM | GI50 (786-0): > 100 µM | GI50 (SF-268): > 100 µM | GI50 (K562): 60.3 µM | GI50 (T47D): 0.107 µM | GI50 (MDA-MB-435): 79.4 µM | GI50 (SF-295): 64.6 µM | GI50 (BT-549): 66.1 µM | GI50 (COLO 205): 51.3 µM | GI50 (HOP-62): > 100 µM | GI50 (U-251): 66.1 µM | GI50 (MCF7 [2]): 0.0316 µM | GI50 (SN12C): 50.1 µM | GI50 (NCI-H23): 58.9 µM | GI50 (CCRF-CEM): 6.46 µM | GI50 (SR): 17.4 µM | GI50 (NCI-H522): 32.4 µM | GI50 (SK-MEL-2): > 100 µM | GI50 (MOLT-4): 19.5 µM | GI50 (LOX IMVI): 37.2 µM | GI50 (TK-10): 0.186 µM | IC50 (MCF7 [1]): < 0.001 µM | GI50 (RXF 393): 67.6 µM | GI50 (MDA-MB-231): 66.1 µM | GI50 (SK-MEL-28): > 100 µM | GI50 (OVCAR-4): 0.55 µM | GI50 (NCI-H226): 0.355 µM

Cc1cc(-c2nc3cc(O)ccc3s2)ccc1N
IC50 (MCF7 [1]): 78.7 µM

Nc1ccc(-c2nc3ccc(O)cc3s2)cc1
IC50 (MCF7 [1]): 21.6 µM

CC(=O)ON(C(C)=O)c1ccc(-c2nc3ccccc3s2)cc1
IC50 (MCF7 [1]): < 0.001 µM

CC(=O)Nc1ccc(-c2nc3c(O)cccc3s2)cc1C
IC50 (MCF7 [1]): 33 µM

Nc1ccc(-c2nc3c(O)cccc3s2)cc1Cl
IC50 (MCF7 [1]): 61.4 µM

Nc1ccc(-c2nc3ccccc3s2)cc1I
IC50 (MCF7 [1]): < 0.001 µM

Nc1ccc(-c2nc3cc(O)ccc3s2)cc1Cl
IC50 (MCF7 [1]): 60.6 µM

Cc1cc(-c2nc3cccc(O)c3s2)ccc1N
IC50 (MCF7 [1]): 90.8 µM

Nc1ccc(-c2nc3ccccc3s2)cc1Cl
IC50 (MCF7 [1]): < 0.001 µM

Nc1ccc(-c2nc3ccccc3s2)cc1CO
IC50 (MCF7 [1]): 0.006 µM
